In PubChem BioAssay (NCI):
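Values below derive from 48-hour exposures of cells grown in 96-well plates, with endpoints linearly interpolated between the two concentrations bracketing the appropriate inhibition level. The concentration for 50% growth inhibition is given as GI50. TGI: concentration producing complete growth inhibition.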

Legend:
Assay in all cases: growth of human tumour cells (NCI), 48 h
MALME-3M melanoma = tested on: MALME-3M melanoma
NCI-H522 lung = tested on: NCI-H522 lung
NCI-H23 lung = tested on: NCI-H23 lung
NCI/ADR-RES ovarian = tested on: NCI/ADR-RES ovarian
HL-60(TB) leukemia = tested on: HL-60(TB) leukemia
T-47D breast = tested on: T-47D breast
HOP-92 NSCLC = tested on: HOP-92 NSCLC
OVCAR-3 ovarian = tested on: OVCAR-3 ovarian
SNB-75 CNS = tested on: SNB-75 CNS
OVCAR-5 ovarian = tested on: OVCAR-5 ovarian
HCT-15 colon = tested on: HCT-15 colon
IGROV1 ovarian = tested on: IGROV1 ovarian
CCRF-CEM leukemia = tested on: CCRF-CEM leukemia
UACC-257 melanoma = tested on: UACC-257 melanoma
MCF7 breast = tested on: MCF7 breast
SK-MEL-2 melanoma = tested on: SK-MEL-2 melanoma
HS 578T breast = tested on: HS 578T breast
MDA-MB-231 breast = tested on: MDA-MB-231 breast
RPMI-8226 leukemia = tested on: RPMI-8226 leukemia
COLO 205 colon = tested on: COLO 205 colon
DU-145 prostate = tested on: DU-145 prostate
HCT-116 colon = tested on: HCT-116 colon
MOLT-4 leukemia = tested on: MOLT-4 leukemia
U251 CNS = tested on: U251 CNS
A549 NSCLC = tested on: A549 NSCLC
RXF 393 renal = tested on: RXF 393 renal
HT29 colon = tested on: HT29 colon
HCC-2998 colon = tested on: HCC-2998 colon

**Q.** How did the TGI (MALME-3M melanoma) turn out when `CCOc1cc(/C=C/C(=O)C(C(=O)/C=C/c2ccc(OC(=O)CNc3nc4ccccc4[nH]3)c(OCC)c2)C(=O)CNc2nc3ccccc3[nH]2)ccc1OC(=O)CNc1nc2ccccc2[nH]1` was run?
**A.** Its TGI is 5.93 µM.

**Q.** What about the GI50 (NCI-H522 lung) of the same compound?
**A.** The GI50 was 3.29 µM.

**Q.** And the TGI (NCI-H522 lung)?
**A.** The TGI was 12.5 µM.

**Q.** And the GI50 (NCI-H23 lung)?
**A.** Its GI50 is 2.5 µM.

**Q.** What about the TGI (NCI-H23 lung) of the same compound?
**A.** Its TGI is 9.71 µM.

**Q.** And the GI50 (NCI/ADR-RES ovarian)?
**A.** Its GI50 is 3.39 µM.

**Q.** And the TGI (NCI/ADR-RES ovarian)?
**A.** The TGI was 74 µM.

**Q.** And the GI50 (HL-60(TB) leukemia)?
**A.** Its GI50 is 1.62 µM.

**Q.** And the TGI (HL-60(TB) leukemia)?
**A.** Its TGI is 3.61 µM.

**Q.** And the GI50 (T-47D breast)?
**A.** The GI50 was 2.86 µM.

**Q.** What about the TGI (T-47D breast) of the same compound?
**A.** Its TGI is 14.9 µM.

**Q.** What about the GI50 (HOP-92 NSCLC) of the same compound?
**A.** Its GI50 is 1.4 µM.

**Q.** What about the TGI (HOP-92 NSCLC) of the same compound?
**A.** The TGI was 4.26 µM.

**Q.** What about the GI50 (OVCAR-3 ovarian) of the same compound?
**A.** Its GI50 is 2.81 µM.

**Q.** What about the TGI (OVCAR-3 ovarian) of the same compound?
**A.** Its TGI is 12.3 µM.

**Q.** And the GI50 (SNB-75 CNS)?
**A.** Its GI50 is 3.73 µM.

**Q.** What about the TGI (SNB-75 CNS) of the same compound?
**A.** The TGI was 27.9 µM.

**Q.** And the GI50 (OVCAR-5 ovarian)?
**A.** Its GI50 is 2.09 µM.

**Q.** What about the TGI (OVCAR-5 ovarian) of the same compound?
**A.** Its TGI is 5.22 µM.

**Q.** What about the GI50 (HCT-15 colon) of the same compound?
**A.** The GI50 was 2.53 µM.

**Q.** What about the TGI (HCT-15 colon) of the same compound?
**A.** Its TGI is 7.87 µM.

**Q.** What about the GI50 (IGROV1 ovarian) of the same compound?
**A.** The GI50 was 2.93 µM.

**Q.** What about the TGI (IGROV1 ovarian) of the same compound?
**A.** Its TGI is greater than 100 µM.

**Q.** And the GI50 (CCRF-CEM leukemia)?
**A.** Its GI50 is 1.14 µM.

**Q.** And the TGI (CCRF-CEM leukemia)?
**A.** The TGI was 3.16 µM.

**Q.** And the GI50 (UACC-257 melanoma)?
**A.** Its GI50 is 2.85 µM.

**Q.** And the TGI (UACC-257 melanoma)?
**A.** The TGI was 8.73 µM.

**Q.** And the GI50 (MCF7 breast)?
**A.** The GI50 was 1.06 µM.

**Q.** What about the TGI (MCF7 breast) of the same compound?
**A.** The TGI was 3.56 µM.

**Q.** What about the GI50 (SK-MEL-2 melanoma) of the same compound?
**A.** Its GI50 is 3.26 µM.

**Q.** What about the TGI (SK-MEL-2 melanoma) of the same compound?
**A.** Its TGI is 28.8 µM.

**Q.** And the GI50 (HS 578T breast)?
**A.** Its GI50 is 1.83 µM.

**Q.** What about the TGI (HS 578T breast) of the same compound?
**A.** Its TGI is 5.18 µM.

**Q.** And the GI50 (MDA-MB-231 breast)?
**A.** The GI50 was 2.39 µM.

**Q.** What about the TGI (MDA-MB-231 breast) of the same compound?
**A.** Its TGI is 7.29 µM.

**Q.** And the GI50 (RPMI-8226 leukemia)?
**A.** The GI50 was 0.754 µM.

**Q.** What about the TGI (RPMI-8226 leukemia) of the same compound?
**A.** Its TGI is 2.51 µM.

**Q.** What about the GI50 (COLO 205 colon) of the same compound?
**A.** Its GI50 is 2.08 µM.

**Q.** What about the TGI (COLO 205 colon) of the same compound?
**A.** The TGI was 4.61 µM.

**Q.** What about the GI50 (DU-145 prostate) of the same compound?
**A.** Its GI50 is 1.7 µM.

**Q.** And the TGI (DU-145 prostate)?
**A.** The TGI was 3.72 µM.

**Q.** And the GI50 (HCT-116 colon)?
**A.** Its GI50 is 1.63 µM.

**Q.** And the TGI (HCT-116 colon)?
**A.** Its TGI is 4.84 µM.

**Q.** And the GI50 (MOLT-4 leukemia)?
**A.** Its GI50 is 1.47 µM.

**Q.** And the TGI (MOLT-4 leukemia)?
**A.** Its TGI is 3.04 µM.

**Q.** And the GI50 (U251 CNS)?
**A.** The GI50 was 1.94 µM.

**Q.** What about the TGI (U251 CNS) of the same compound?
**A.** The TGI was 4.34 µM.

**Q.** And the GI50 (A549 NSCLC)?
**A.** The GI50 was 3.55 µM.

**Q.** And the TGI (A549 NSCLC)?
**A.** Its TGI is 27 µM.

**Q.** What about the GI50 (RXF 393 renal) of the same compound?
**A.** The GI50 was 4.08 µM.

**Q.** What about the TGI (RXF 393 renal) of the same compound?
**A.** Its TGI is greater than 100 µM.

**Q.** What about the GI50 (HT29 colon) of the same compound?
**A.** Its GI50 is 1.29 µM.

**Q.** And the TGI (HT29 colon)?
**A.** Its TGI is 2.56 µM.

**Q.** And the GI50 (HCC-2998 colon)?
**A.** The GI50 was 1.69 µM.

**Q.** What about the TGI (HCC-2998 colon) of the same compound?
**A.** The TGI was 3.22 µM.
